Legend:
[1] = test system: HIF2α-dependent transcription in 786-O-HRE-Luc cells; experiment: In vitro cellular hypoxia response element (HRE) reporter gene assay (RGA) for HIF2α; type: cell-based, human; conditions: Homo sapiens, 24 hours incubation
Procedure, shortened: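 Renal carcinoma cells carrying a 4×HRE-driven PEST-destabilised firefly luciferase were treated a day after seeding with eleven 2-fold compound dilutions (0.1% DMSO) for 24 h at 37° C. BrightGlo luminescence, background-subtracted and expressed as % of DMSO control, was fitted four-parametrically for IC50.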

[2] = target: T1, HIF2α PAS-B domain (236-350, biotinylated on the N-terminus) (Homo sapiens (Human), UniProt Q99814); experiment: biochemical
Description: (§1) The assay buffer contained 50 mM Tris-HCl pH7 (Sigma), 20 mM NaCl (Fluka), 0.02% BSA (Sigma), 0.005% Triton X-100 (Pierce) and 1 mM DTT (Fluka). After a 30 min incubation period, 5 μL Streptavidin PVT SPA Beads (Perkin Elmer) at 1.2 mg/mL, diluted in the buffer, were added.

[3] = test system: HIF2α-regulated expression of the endogenous target gene hEGLN3 in 786-O cells; experiment: Cellular iScript assay for HIF2α (quantitative RT-PCR of hEGLN3); type: cell-based, human; conditions: Homo sapiens, 786-0, 48 hours incubation
Procedure, shortened: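 786-O cells were exposed to eleven 2-fold compound dilutions for 48 h at 37° C. Lysates underwent one-step TaqMan qRT-PCR for hEGLN3 with beta-actin as reference; 2^(−ΔΔCt) versus DMSO, as % of control, was fit with a four-parameter model to give IC50.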

[4] = target: T1, HIF2α PAS-B domain (236-350, biotinylated on the N-terminus); experiment: In vitro SPA with the PAS-B domain of HIF2α (competition binding with radio-ligand); conditions: read-out: affinity of the non-labeled ligand, IC50
Description: as §1

[5] = 25° C.; for hygroscopicity assignment (DVS): 0 to 95% RH
Description: Dynamic vapor sorption was performed using a SMS Advantage system. Approximately 10 mg of sample was subjected to varying humidities between 0% RH and 95% RH at 25° C. Evaluation was performed using the system software.

T1 sequence (Q99814 236-350): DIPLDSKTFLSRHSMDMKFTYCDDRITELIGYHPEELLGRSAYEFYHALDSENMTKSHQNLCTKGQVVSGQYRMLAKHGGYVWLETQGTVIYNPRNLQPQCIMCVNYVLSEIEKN

Structure (SMILES) | IC50 [1] [nM] | IC50 [2] [nM] | IC50 [3] [nM] | IC50 [4] [nM] | hygroscopicity assignment (DVS) [5] | mass difference between 0 and 95% RH (DVS) [5]
FC(F)OC1=CC(C(F)(F)F)=CN2CC3(CCCOc4c(Cl)cccc43)N=C12 (racemic) [Example 118, rac-9-chloro-8′-(difluoromethoxy)-6′-(trifluoromethyl)-3,4-dihydro-2H,3′H-spiro[benzo[b]oxepine-5,2′-imidazo[1,2-a]pyridine]] | 1030 | 16 | 161 |  |  | 
FC1=CC(C(F)(F)F)=CN2CC3(CCCc4c3ccc(F)c4F)N=C12 (racemic) [Example 78, rac-5′,6′,8-trifluoro-6-(trifluoromethyl)-3′,4′-dihydro-2′H,3H-spiro[imidazo[1,2-a]pyridine-2,1′-naphthalene]] | 4230 | 8 | 161 |  |  | 
Fc1c(Br)ccc2c1CC[C@@]21CN2C=C(C(F)(F)F)C=C(OC(F)F)C2=N1 [Example 1, (S)-5′-bromo-8-(difluoromethoxy)-4′-fluoro-6-(trifluoromethyl)-2′,3′-dihydro-3H-spiro[imidazo[1,2-a]pyridine-2,1′-indene]] | 232 | ≤ 3 | 65 |  |  | 
N#CC1=CN2C[C@@]3(CSCc4c(F)cccc43)N=C2C(OC(F)F)=C1 [Example 68, (S)-8-(difluoromethoxy)-8′-fluoro-3H-spiro[imidazo[1,2-a]pyridine-2,4′-isothiochroman]-6-carbonitrile] | 670 | 11 | 111 |  |  | 
FC(F)OC1=CC(C(F)(F)F)=CN2CC3(CCCc4c(Br)cccc43)N=C12 (racemic) [Example 81, rac-5′-bromo-8-(difluoromethoxy)-6-(trifluoromethyl)-3′,4′-dihydro-2′H,3H-spiro[imidazo[1,2-a]pyridine-2,1′-naphthalene]] | 143 | ≤ 10 | 57 |  |  | 
O=[N+]([O-])c1c(Nc2cc(F)cc(Cl)c2)ccc2nonc12 [N-(3-chloro-5-fluorophenyl-4-t)-4-nitrobenzo[c][1,2,5]oxadiazol-7-t-5-amine, reference compound] |  |  |  | 82 ± 18 |  | 
O[C@@H]1c2c(ccc(Br)c2F)[C@]2(CN3C=C(C(F)(F)F)C=C(OC(F)F)C3=N2)CC1(F)F [Example 19, (1′S,4′R)-6′-bromo-8-(difluoromethoxy)-3′,3′,5′-trifluoro-6-(trifluoromethyl)-3′,4′-dihydro-2′H,3H-spiro[imidazo[1,2-a]pyridine-2,1′-naphthalen]-4′-ol] | 446 | 36 | 144 |  |  | 
FC(F)OC1=CC(C(F)(F)F)=CN2C[C@@]3(CCC(F)(F)c4c3ccnc4Cl)N=C12 |  |  |  |  | non-hygroscopic | less than 0.05 weight %
FC(F)OC1=CC(C(F)(F)F)=CN2C[C@@]3(CCC(F)(F)c4c3ccnc4Cl)N=C12.O=C(O)/C=C/C(=O)O |  |  |  |  | non-hygroscopic | less than 0.1 weight %
O=C1c2c(F)cccc2[C@@]2(C[C@H]1F)CN1C=C(C(F)(F)F)C=C(OC(F)F)C1=N2 [Example 20, (1′S,3′R)-8-(difluoromethoxy)-3′,5′-difluoro-6-(trifluoromethyl)-2′H,3H-spiro[imidazo[1,2-a]pyridine-2,1′-naphthalen]-4′(3′H)-one] | 892 | 15 | 155 |  |  | 
O[C@H]1c2c(ccc(Br)c2F)[C@]2(CN3C=C(C(F)(F)F)C=C(OC(F)F)C3=N2)CC1(F)F [Example 18, (1′S,4'S)-6′-bromo-8-(difluoromethoxy)-3′,3′,5′-trifluoro-6-(trifluoromethyl)-3′,4′-dihydro-2′H,3H-spiro[imidazo[1,2-a]pyridine-2,1′-naphthalen]-4′-ol] | 92 | 6 | 37 |  |  | 
Fc1c(C(F)(F)F)ccc2c1COCC21CN2C=C(C(F)(F)F)C=C(OC(F)F)C2=N1 (racemic) [Example 108, rac-8-(difluoromethoxy)-8′-fluoro-6,7′-bis(trifluoromethyl)-3H-spiro[imidazo[1,2-a]pyridine-2,4′-isochroman]] | 692 | 29 | 156 |  |  | 
